Data: PMC4879371, “Antitrypanosomal Activities and Mechanisms of Action of Novel Tetracyclic Iridoids from Morinda lucida Benth” (Antimicrobial Agents and Chemotherapy, 2016)
“Also recorded” adds a separate entry of the source.

Tests used:
[1] = system: T. brucei brucei parasites; test: Parasite morphology, DAPI / anti-PFR-2 immunohistochemistry; type: cell-based, Trypanosoma brucei brucei; conditions: 24 h; 5 μM molucidin, 15 μM ML-2-3, 0.43 μM ML-F52
Protocol: (§1) To investigate the effect of the compounds on parasite morphology and their flagellum function, immunohistochemistry using anti-paraflagellum rod protein anti-PFR-2 antibody ([37]), was performed with molucidin-, ML-2-3-, and ML-F52-treated trypanosome parasites. […] Parasites were then harvested after incubation with or without appropriate concentrations of compounds and were fixed with 4% paraformaldehyde in 8-well chamber slides at room temperature for 5 min. Washing steps were carried out with 500 μl of phosphate-buffered saline (PBS) twice and 0.1% Triton X-100 in PBS (PBST) at room temperature for 5 min each. Blocking reagent (500 μl; 3% bovine serum albumin [BSA] in PBS) was added and incubated for 30 min at room temperature. Primary and secondary antibody incubation with parasites was done for 1 h each, and 4′,6-diamidino-2-phenylindole (DAPI) (5 μg/ml DAPI in PBS) staining was done for 10 min. After the washing steps presented above, the slides were mounted using PermaFluor mounting reagent and were covered with coverslips. The slides were observed under an Olympus fluorescence microscope (Olympus BX53) to detect any phenotypic changes in T. brucei brucei parasites.

[2] = system: paraflagellum rod protein subunit 2, PFR-2; test: PFR-2 expression, immunohistochemistry and Western blotting with anti-PFR-2 antibody; type: cell-based, Trypanosoma brucei brucei; conditions: for expression of PFR-2 protein: 24 h, 5 μM molucidin, 15 μM ML-2-3, 0.43 μM ML-F52
Protocol: as §1
Trypanosome parasites were incubated with or without compound in vitro and were lysed with 0.5% NP-40 ([38]). Protein concentration of the lysate was determined using the Bio-Rad protein assay reagents (Bio-Rad, USA). SDS-PAGE was run using Invitrogen NuPAGE 12% Bis-Tris gel. The proteins were blotted on a polyvinylidene difluoride (PVDF) membrane (Immobilon P; Millipore, USA), added with mouse anti-PFR-2 antibody, 1:500 dilution, and incubated at 4°C overnight. The membrane was then incubated with anti-mouse horseradish peroxidase (HRP) antibodies, 1:2,000 dilution, for an hour at room temperature. Chemiluminescence HRP substrates A and B (Immobilon Western; Millipore, USA) were added to the membrane in a ratio of 1:1. Detection was done using the ATTO cooled charge-coupled device (CCD) camera system EzCapture II (ATTO Corporation, Japan).
To investigate the sequence in which the events (apoptosis induction, PFR-2 suppression, and cell cycle alteration) involved in mechanisms of action occur, we examined the time course for the three events using ML-2-3-treated parasites. Trypanosoma brucei parasites were incubated for 0, 0.5, 1.5, 3, 6, and 24 h with 15 μM ML-2-3 and were then subjected to both Nexin assay and Western blot analyses using the PFR-2 antibody. We further investigated the time course of cell cycle alteration using ML-2-3-treated parasites at similar concentrations and incubation periods.

[3] = system: T. brucei brucei (TC-221 strain); type: in vivo; conditions: for survival of mice / death, days postinfection: vehicle control died at day 9
Protocol: Six-week-old BALB/c female mice with an average weight of 20 g were infected with 1 × 10^3 cells of T. brucei brucei (TC-221 strain) and were randomly grouped into four cages containing five mice each. The first 3 groups were treated with 30 mg/kg of body weight of molucidin, ML-2-3, and ML-F52, respectively, 6 h postinfection and continued daily afterward for 5 consecutive days. The last group received physiological saline containing <0.1% of DMSO as a vehicle control. Parasitemia and weight were monitored daily until 20 days postinfection. The experiments were conducted in compliance with the internationally accepted principles for laboratory animal use and care as contained in the Canadian Council on Animal Care guidelines on animal use protocol review.

[4] = MTT cytotoxicity assay, NB1RGB; type: cell-based, human; conditions: human, NB1RGB skin fibroblast cells; NB1RGB normal skin fibroblast, 48 h
Protocol: (§2) The cytotoxicity of the compounds to mammalian cells were determined using four human normal cell lines, namely, NB1RGB (skin fibroblast) and HF-19 (lung fibroblast) obtained from the RIKEN Bio Resource Center Cell Bank (Japan) and Chang Liver and Hs888Lu (lung) obtained from the European Collection of Authenticated Cell Cultures (ECACC). NB1RGB and HF-19 were maintained in minimum essential medium-α (MEM-α). Chang Liver and Hs888Lu were grown in Eagle's minimum essential medium (EMEM) and RPMI 1640, respectively. All of these media were supplemented with 10% fetal bovine serum (FBS) and 1% penicillin-streptomycin and were then incubated at 37°C under 5% CO2 in fully humidified conditions.
(§3) Cytotoxicity was determined using a 3-(4,5-dimethylthiazol-2-yl)-2,5-diphenyltetrazolium bromide (MTT) assay. The cells were treated with molucidin, ML-2-3, or ML-F52 at concentrations of ≤50 μM for 48 h. Cells were plated at a density of 0.5 × 10^4 cells/well into 96-well plates. After 24 h of incubation, cells were treated with various concentrations of each of the purified compounds for 48 h. Then, MTT solution was added to each well, and the cells were incubated for another 4 h. The precipitated MTT-formazan product was dissolved in 0.04 N HCl-isopropanol, and the amount of formazan was measured at a wavelength of 595 nm by a microplate reader (Immuno Mini NJ-2300; Nihon InterMed, Tokyo, Japan). Cytotoxicity was calculated as the percentage of live cells relative to the control culture. The selectivity index (SI) was expressed as the ratio of the IC50 obtained for mammalian cells and the IC50 for trypanosomes.

[5] = system: NB1RGB (skin fibroblast); test: MTT cytotoxicity assay, NB1RGB; type: cell-based, human; conditions: IC50 NB1RGB / IC50 trypanosomes
Protocol: as §2, §3

[6] = system: Plasmodium falciparum; test: Preliminary in vitro anti-Plasmodium activity; type: cell-based; conditions: preliminary studies, unpublished data
[7] = system: Trypanosoma parasites (T. brucei brucei); test: FACS Nexin assay for apoptosis in trypanosome parasites; type: cell-based; conditions: 24 h; for minimum concentration inducing strong apoptosis: 0 μM to 50 μM tested; for apoptosis induction: molucidin 6.25 μM, ML-2-3 6.25 μM, ML-F52 0.78 μM
Protocol: Seeding and incubation of parasites with compounds were done under the same conditions as those for the alamarBlue assay as described above without addition of the alarmarBlue reagent. In this case, after 24 h of incubation, Guava reagents for Nexin and cell cycle assays were added, and each assay was performed using the Millipore Guava easyCyte 5HT fluorescence-activated cell sorter (FACS) machine according to the manufacturer's instruction. The Nexin assay and subsequent FACS analysis allowed for detection of markers of apoptosis induction by the plant materials. Similarly, the cell cycle assay and subsequent FACS analysis allowed for detection of markers of cell cycle alteration by the plant materials. […]

[8] = MTT cytotoxicity assay, Hs888Lu; type: cell-based, human; conditions: human, Hs888Lu lung cells; Hs888Lu normal lung, 48 h
Protocol: as §2, §3

[9] = system: Hs888Lu (lung); test: MTT cytotoxicity assay, Hs888Lu; type: cell-based, human; conditions: IC50 Hs888Lu / IC50 trypanosomes
Protocol: as §2, §3

[10] = 30 mg/kg intraperitoneally, 5 consecutive days

| SMILES | effect on nuclei and kinetoplast (DAPI) [1] | effect on parasite cell form [1] | time of exposure to significant suppression of PFR-2 protein expression ([2]; 15 μM ML-2-3, time course Western blot) | expression of PFR-2 protein [2] | survival of mice / death, days postinfection [3, 10] | IC50 at 48 h [4] | SI (selectivity index) [5] | anti-Plasmodium activity in vitro [6] | minimum concentration inducing strong apoptosis [7] | early-stage apoptotic cells (lower right quadrant) ([7]; 6.25 μM) | late-stage apoptotic cells (upper right quadrant) ([7]; 6.25 μM) | apoptosis induction [7] | IC50 at 48 h [8] | SI (selectivity index) [9] | cure for 20 days postinfection [3, 10] | early-stage apoptotic cells (lower right quadrant) ([7]; 0.78 μM) | late-stage apoptotic cells (upper right quadrant) ([7]; 0.78 μM) | toxicity in mice ([3]; mouse, in vivo) |
| --- | --- | --- | --- | --- | --- | --- | --- | --- | --- | --- | --- | --- | --- | --- | --- | --- | --- | --- |
| COc1cc(/C=C2/C(=O)O[C@]34C=C[C@@H]5C(C(=O)O)=CO[C@H](O[C@@H]23)[C@@H]54)ccc1O [ML-2-3] | fragmented nuclei with normal kinetoplast | typical short stumpy form | ≤ 0.5 h | suppression of PFR-2 expression; also recorded: suppressed the expression of PFR-2 proteins | 9 days | > 50 µM | >13.33 | anti-Plasmodium activities | 6.25 µM | 7.8% | 4.4% | significant apoptosis induction | > 50 µM | >13.33 | – | – | – | – |
| CCOC(=O)C1=CO[C@@H]2O[C@H]3/C(=C\c4ccc(O)c(OC)c4)C(=O)O[C@]34C=C[C@H]1[C@H]24 [ML-F52] | fragmented nuclei with normal kinetoplast | abnormal cells that had two sets of kinetoplasts and flagellum with fragmented nuclei | – | suppression of PFR-2 expression; also recorded: suppressed the expression of PFR-2 proteins | 20 days | 4.74 µM | 11.02 | anti-Plasmodium activities | 0.78 µM | – | – | strongest induction of apoptosis | 8.89 µM | 20.67 | 100% | 14.2% | 2.3% | – |
| COC(=O)C1=CO[C@@H]2O[C@H]3/C(=C\c4ccc(O)c(OC)c4)C(=O)O[C@]34C=C[C@H]1[C@H]24 [molucidin] | intact kinetoplast but totally disintegrated nuclei | stumpy-like parasites | – | significant expression of PFR-2 | – | 7.11 µM | 5.60 | anti-Plasmodium activities | – | 1.1% | 0% | no significant induction of apoptosis; also recorded: no significant apoptotic induction | 9.29 µM | 7.31 | – | – | – | severe toxicity |
